From patent US10806794B2, “Protease inhibitors having enhanced features” (priority 2008, dated 2020)
Converted amounts (≈) assume the structure as drawn. “And” between values parts separate entries of the source, which are not always exact repeats. Equal values may be shown once.

Experiments:
[1] = system: CEM-SS cells; assay: Post-exposure assay: toxicity in CEM-SS cells; details: human
Protocol: (§1) The effects of pre- and post-infection PI treatment on CEM-SS toxicity were assessed. […] Cell toxicity was monitored six days after infection using XTT reagent. In the post-exposure assay, test compounds were added to cells 0, 24, 48, or 72 h after HIV-1 infection, and cell viability was measured six days post-infection.

[2] = system: HIV-1 virions; assay: Infectivity of HIV-1 virions from treated cells on naive CEM-SS cells; assay type: cell-based
Protocol: In concert with p24 analysis, cell supernatants collected from cells exposed to test compounds at 8, 16, or 24 hours post-infection were used to infect naïve CEM-SS cells. Cell viability was measured six days post-infection as a measure of virus infectivity (Table 5).

[3] = system: HIV-1RF; assay: p24 levels after single high MOI HIV-1RF infection of CEM-SS cells, time of addition; assay type: cell-based
Protocol: The cytoprotective effect against HIV of the PEG-protease inhibitor conjugates was evaluated during a single round of high multiplicity of infection (“MOI”) HIV-1 infection in CEM-SS cells. CEM-SS cells were incubated for one hour with a single high MOI dose of HIV-1RF. Cells were washed to remove free virus, then test compounds were added to cells at 0, 2, 4, 6, 8, 16, or 24 hours after HIV-1 infection. To monitor viral replication, cell supernatants were analyzed at 30 hours post-infection for levels of the HIV capsid protein p24 (FIG. 1). […] Nevirapine inhibited viral replication at 1 μM when added to cells up to four hours post-infection, and at 10 μM when added up to eight hours post-infection.

[4] = system: HIV-1RF; assay: Post-exposure assay: compounds added after HIV-1 infection of CEM-SS cells, cell viability; assay type: cell-based; details: Human immunodeficiency virus 1, CEM-SS, read-out: EC50
Protocol: as §1

[5] = system: HIV-1RF; assay: Pre-exposure assay: CEM-SS cells treated before HIV-1RF infection, cell viability; assay type: cell-based; details: for EC50: Human immunodeficiency virus 1, CEM-SS, read-out: EC50
Protocol: as §1

[6] = system: HIV-1 HT/92/599; assay: HIV-1 reverse transcriptase activity after infection of fresh human PBMCs; assay type: cell-based; details: read-out: PBMC/HIV-1HT/92/599 EC50 ± SD; seven days, reverse transcriptase activity
Protocol: (§2) Fresh human peripheral blood mononuclear cells (PBMCs) obtained from a commercial source were purified following centrifugation using a Ficoll-Hypaque density gradient. Viable cells were induced to proliferate in the presence of PHA-P and recombinant human IL-2 for 72 hours. […] Cell supernatant containing HIV-1 viral was incubated for 90 minutes at 37° C. with a reaction mixture containing EGTA, Triton X-100, Tris (pH 7.4), DTT, MgCl2, poly rA, oligo dT, and tritiated thymidine triphosphate (TTP). Incorporation of TTP into DNA was monitored by spotting the reaction mixture onto a DEAE filter mat, followed by washes with 5% phosphate buffer, distilled water, and 70% ethanol, and subsequent drying of the mat. Radioactivity was measured using a Wallac 1450 Microbeta Trilux liquid scintillation counter using Opti-Fluor O. Test compound-associated toxicity was measured in PBMCs cultured for seven days in the absence of virus using XTT reagent. […] TI was calculated as TC50/EC50.

[7] = system: HIV-1RF; assay: Anti-HIV cytoprotection in CEM-SS cells infected with HIV-1RF (XTT); assay type: cell-based; details: six days, XTT; read-out: CEM-SS/HIV-1RF EC50 ± SD
Protocol: To evaluate whether conjugated protease inhibitors retain the ability to protect against HIV-1 infection, CEM-SS cells infected with the RF strain of HIV-1 were treated with test compounds for six days, and then cell viability was monitored using the tetrazolium dye XTT. […] A value for Therapeutic Index (TI) was calculated as TC50/EC50.

[8] = system: human plasma proteins; assay: Plasma protein binding by equilibrium dialysis, human plasma; assay type: in vitro ADME; details: human plasma, 5 μM, fraction unbound
Protocol: In assays to estimate binding of test compounds to plasma proteins, test compound solutions (5 μM) are prepared in buffer and species-specific plasma (final DMSO concentration 0.5%). The plasma-containing solution is added to one side of the membrane of an equilibrium dialysis system, and the plasma-free is added to the other side. Dialysis was allowed to reach equilibrium by incubation for two hours at 37° C. The concentration of compound on both sides of the membrane was measured using LC-MS/MS.

[9] = system: PBMCs; assay: Toxicity in PBMCs cultured without virus (XTT); details: seven days, absence of virus, XTT
Protocol: as §2, with “mat.” for “mat. Radioactivity was measured using a Wallac 1450 Microbeta Trilux liquid scintillation counter using Opti-Fluor O. Test compound-associated toxicity was measured in PBMCs cultured for seven days in the absence of virus using XTT reagent.”

[10] = system: human liver microsomal proteins; assay: Microsomal protein binding by equilibrium dialysis; assay type: in vitro ADME; details: human liver microsomes, 3 μM, fraction unbound
Protocol: PEGylated protease inhibitors were evaluated for their propensity to be bound by proteins in normal human plasma or in human liver microsome preparations using equilibrium dialysis analysis. For microsomal protein binding, test compound (final concentration=3 μM) was diluted into either buffer alone or buffer containing human liver microsomes. The protein-free and microsome-containing solutions were then added to either side of an equilibrium dialysis system and allowed to reach equilibrium at 37° C. The concentration of compound on both sides of the membrane at equilibrium was quantified by LC-MS/MS, and the fraction of compound that remains unbound (Fu) is calculated.

[11] = system: Caco-2 cells; assay: Bi-directional permeability in Caco-2 monolayers; details: Caco-2 monolayers
Protocol: Absorption properties of various compounds were measured using bi-directional permeability assays in Caco-2 cells. […] The efflux ratio is calculated as the ratio of the Papp(B→A)/Papp(A→B).

[12] = Metabolic stability in human liver microsomes; details: human liver microsomes, 3 μM
Protocol: The human liver microsome-mediated biotransformation of PEG-PI compounds was determined by monitoring the loss of the substrate as a function of time. […] Test compounds (3 μM final concentration) were preincubated with pooled (male and female) human liver microsomes (0.5 mg/mL final protein concentration) in buffer (0.1M phosphate buffer, pH 7.4) at 37° C. Reactions were initiated by the addition of NADPH (1 mM final concentration), and allowed to continue for 0, 5, 15, 30, and 45 minutes. […] Sample supernatants are analyzed by liquid chromatography-tandem mass spectrometry.

[13] = drug addition 0 h post-infection
[14] = drug addition 24 h post-infection
[15] = drug addition 48 h post-infection
[16] = drug addition 72 h post-infection

SMILES: COc1cc(-c2ccc(/N=N/c3ccc4c(S(=O)(=O)O)cc(S(=O)(=O)O)c(N)c4c3O)c(OC)c2)ccc1/N=N/c1ccc2c(S(=O)(=O)O)cc(S(=O)(=O)O)c(N)c2c1O [Chicago Sky Blue]
- TC50 ([1]; 3 days): 5.6 µg/mL (≈ 6.19 µM)
- TC50 ([1]; 4 days): 5.5 µg/mL (≈ 6.08 µM)
- TC50 ([1]; 5 days): 4.9 µg/mL (≈ 5.42 µM)
- TC50 ([1]; 6 days): 8.2 µg/mL (≈ 9.06 µM)
- Percent Infectivity of HIV-1 Virions in comparison to virus-alone control ([2]; 0.5 μg/mL, added 8 h post-infection): 100.0%
- Percent Infectivity of HIV-1 Virions in comparison to virus-alone control ([2]; 0.5 μg/mL, added 16 h post-infection): 177.8%
- Percent Infectivity of HIV-1 Virions in comparison to virus-alone control ([2]; 0.5 μg/mL, added 24 h post-infection): 266.4%
- Percent Infectivity of HIV-1 Virions in comparison to virus-alone control ([2]; 5 μg/mL, added 8 h post-infection): 100.0%
- Percent Infectivity of HIV-1 Virions in comparison to virus-alone control ([2]; 5 μg/mL, added 16 h post-infection): 331.2%
- Percent Infectivity of HIV-1 Virions in comparison to virus-alone control ([2]; 5 μg/mL, added 24 h post-infection): 100.0%
- Percent Infectivity of HIV-1 Virions in comparison to virus-alone control ([2]; 50 μg/mL, added 8 h post-infection): 100.0%
- Percent Infectivity of HIV-1 Virions in comparison to virus-alone control ([2]; 50 μg/mL, added 16 h post-infection): 562.3%
- Percent Infectivity of HIV-1 Virions in comparison to virus-alone control ([2]; 50 μg/mL, added 24 h post-infection): 100.0%
- effect on p24 levels ([3]; added at any time after infection, even at 50 μg/mL): did not affect p24 levels
- EC50 [4, 13]: 1.84 µg/mL
- EC50 [4, 14]: > 10 µg/mL
- EC50 [4, 15]: > 10 µg/mL
- EC50 [4, 16]: > 10 µg/mL
- EC50 ([5]; exposure 2 h pre-infection): > 10 µg/mL
- EC50 ([5]; exposure 8 h pre-infection): > 10 µg/mL
- EC50 ([5]; exposure 24 h pre-infection): > 10 µg/mL
- antiviral activity after pre-treatment of cells ([5]; concentrations up to 10 μg/mL): did not demonstrate antiviral activity

SMILES: CC(C)c1nc(CN(C)C(=O)N[C@H](C(=O)N[C@@H](Cc2ccccc2)C[C@H](O)[C@H](Cc2ccccc2)NC(=O)OCc2cncs2)C(C)C)cs1 [Ritonavir]
- Percent Infectivity of HIV-1 Virions in comparison to virus-alone control ([2]; 0.01 μM, added 8 h post-infection): 42.9%
- Percent Infectivity of HIV-1 Virions in comparison to virus-alone control ([2]; 0.01 μM, added 16 h post-infection): 331.2%
- Percent Infectivity of HIV-1 Virions in comparison to virus-alone control ([2]; 0.01 μM, added 24 h post-infection): 100.0%
- Percent Infectivity of HIV-1 Virions in comparison to virus-alone control ([2]; 0.1 μM, added 8 h post-infection): 1.0%
- Percent Infectivity of HIV-1 Virions in comparison to virus-alone control ([2]; 0.1 μM, added 16 h post-infection): 3.7%
- Percent Infectivity of HIV-1 Virions in comparison to virus-alone control ([2]; 0.1 μM, added 24 h post-infection): 26.6%
- Percent Infectivity of HIV-1 Virions in comparison to virus-alone control ([2]; 1 μM, added 8 h post-infection): 0.1%
- Percent Infectivity of HIV-1 Virions in comparison to virus-alone control ([2]; 1 μM, added 16 h post-infection): 0.1%
- Percent Infectivity of HIV-1 Virions in comparison to virus-alone control ([2]; 1 μM, added 24 h post-infection): 0.1%
- time of addition up to which antiviral activity (reduced p24) was seen ([3]; 0.1 μM): up to six
- time of addition up to which antiviral activity (reduced p24) was seen ([3]; 1 μM): up to 24 hours post-infection
- EC50 [4, 13]: 40 nM
- EC50 [4, 14]: 30 nM
- EC50 [4, 15]: 70 nM
- EC50 [4, 16]: 260 nM
- EC50 ([5]; exposure 2 h pre-infection): 720 nM
- EC50 ([5]; exposure 8 h pre-infection): 750 nM
- EC50 ([5]; exposure 24 h pre-infection): 680 nM
- EC50 values after pre-treatment of cells ([5]; in words): sub-micromolar

SMILES: COCCOCCOCCOCCOCCOCCOCCOc1ccc(C[C@H](NC(=O)O[C@H]2CO[C@H]3OCC[C@H]32)C(O)CN(CC(C)C)S(=O)(=O)c2ccc(N)cc2)cc1 (some centres unmarked) [mPEG7-O-Darunavir]
- EC50 [6]: 250 ± 27 nM
- EC50 [7]: 47 nM and 76 nM
- Plasma Protein Binding Fu ± SD [8]: 0.314 ± 0.0116
- PBMC TC50 ± SD [9]: >200 µM
- Microsomal Protein Binding Fu ± SD [10]: 0.84 ± 0.0131
- Efflux ratio (B→A/A→B) [11]: 33
- A→B, ×10^−6 ([11]; apical to basolateral): 0.19 cm/s
- CLint ± SEM [12]: 113 ± 8.87 μL/min/mg protein
- t1/2 [12]: 12.2 min
